Where a name gives a salt, the structure may show the parent alone. Read-outs that look alike come from different tables or passages of the source.
System: cGMP-PDE V
Experiment: c-GMP-PDE V inhibitory activity
Assay type: biochemical, various animal species and man
Method: The cGMP-PDE and other PDE isozymes were isolated from cardiovascular tissues (heart and aorta) of various animal species and man by anion-exchange and affinity chromatography as described by Silver et al., Sec. Messeng. Phos. 13:13-25, 1991; PDE activity, in the presence and absence of test compounds was determined essentially as described by Thompson et al., Adv. Cyclic Nucleotide Res. 10:69-92. To determine the potency and selectivity of compounds as PDE inhibitors, compounds are screened for their effect on cyclic nucleotide hydrolysis at 10 μM. […] The IC50 values are calculated from concentration-response curves as described by Tallarida and Murray, Manual of Pharmacologic Calculations with Computer Programs, Procedure 8, Graded Dose-response, pp. 14-19, Springer-Verlag, New York, 1981.

[1] = separate experimental runs, first value
[2] = separate experimental runs, second value

| SMILES | IC50 [µM] | also measured |
| --- | --- | --- |
| CCn1ncc2c(NC[C@@H]3CCC[C@H](O)C3)c3cc([N+](=O)[O-])ccc3nc21 (relative stereo) [Example 36(a), 1-ethyl-6-nitro-N-(3-hydroxycyclohexylmethyl)-1 H-pyrazolo[3,4-b]quinolin-4-amine] | 0.0101 |  |
| CCn1ncc2c(NC[C@@H]3CCC[C@@H](O)C3)c3cc([N+](=O)[O-])ccc3nc21 (relative stereo) [Example 36(b), 1-ethyl-6-nitro-N-(3-hydroxycyclohexylmethyl)-1H-pyrazolo[3,4-b]quinolin-4-amine] | 0.0193 |  |
| CCn1nc(C)c2c(NCC3CCCCC3)c3ccccc3nc21 [2(c), 1-ethyl-3-methyl-N-(cyclohexylmethyl)-1H-pyrazolo[3,4-b]quinolin-4-amine hydrochloride] | 0.082 |  |
| CCn1ncc2c(NCC3CCCCC3)c3cccc(OC)c3nc21 [9(f), 1-ethyl-8-methoxy-N-(cyclohexylmethyl)-1H-pyrazolo[3,4-b]quinolin-4-amine] | 0.61 |  |
| c1ccc(Cn2ncc3c(NCC4CCCCC4)c4ccccc4nc32)cc1 [10(d), 1-phenylmethyl-N-(cyclohexylmethyl)-1H-pyrazolo[3,4-b]quinolin-4-amine] | 0.26 |  |
| c1ccc2c(NCC3CCCCC3)c3cnn(C4CCCC4)c3nc2c1 [11(e), 1-cyclopentyl-N-(cyclohexylmethyl)-1H-pyrazolo[3,4-b]quinolin-4-amine] | 0.15 |  |
| CCn1ncc2c(NCC3CCCCC3)c3ccc([N+](=O)[O-])cc3nc21 [16(c), 1-ethyl-7-nitro-N-(cyclohexylmethyl)-1H-pyrazolo[3,4-b]quinolin-4-amine] | 0.15 |  |
| CCn1ncc2c(NCC3CCC(O)CC3)c3cc(OC)ccc3nc21 (stereo not drawn) [19(d), 1-ethyl-6-methoxy-N-(4-hydroxycyclohexylmethyl)-1H-pyrazolo[3,4-b]quinolin-4-amine] |  | Percent Inhibition cGMP-PDE V (0.1 μM): 28% |
| CCn1ncc2c(NCC3CCCCC3)c3cc(NC(C)=O)ccc3nc21 [24(c), 1-ethyl-6-acetamido-N-(cyclohexylmethyl)-1H-pyrazolo[3,4-b]quinolin-4-amine] | 0.051 |  |
| CCn1ncc2c(NCC3CCC(=O)CC3)c3cc(OC)ccc3nc21 [28(b), 1-ethyl-6-methoxy-N-[4-oxocyclohexylmethyl]-1H-pyrazolo[3,4-b]quinolin-4-amine] |  | Percent Inhibition cGMP-PDE V (0.1 μM): 0%; Percent Inhibition cGMP-PDE V (1 μM): 25%; Percent Inhibition cGMP-PDE V (10 μM): 79% |
| CCn1ncc2c(NCC3CCCCC3)c3cc(C(=O)OC)ccc3nc21 [29(d), 1-ethyl-6-methoxycarbonyl-N-(cyclohexylmethyl)-1H-pyrazolo[3,4-b]quinolin-4-amine] | 0.015 |  |
| CCn1ncc2c(N[C@@H](CO)C3CCCCC3)c3cc([N+](=O)[O-])ccc3nc21 [40(c), 1-ethyl-6-nitro-N-[R-(-)-1-(cyclohexyl)ethanol]-1H-pyrazolo[3,4-b]quinolin-4-amine] | 0.0024 |  |
| CCn1ncc2c(NCC3CCCCC3)c3cccc(Br)c3nc21 [44(d), 1-ethyl-8-bromo-N-(cyclohexylmethyl)-1H-pyrazolo[3,4-b]quinolin-4-amine] |  | Percent Inhibition cGMP-PDE V (0.01 μM): 17%; Percent Inhibition cGMP-PDE V (0.1 μM): 20%; Percent Inhibition cGMP-PDE V (1 μM): 70% |
| CCN(CC)S(=O)(=O)c1ccc2nc3c(cnn3C(C)C)c(NCC3CCCCC3)c2c1 [45(d), 1-isopropyl-6-(diethylaminosulfonyl)-N-(cyclohexylmethyl)-1H-pyrazolo[3,4-b]quinolin-4-amine] | 0.044 |  |
| CCn1ncc2c(NCC3CCC(C(=O)OC)CC3)c3ccccc3nc21 (stereo not drawn) [Example 3, 1-ethyl-N-[(4-methoxycarbonylcyclohexyl)methyl]-1H-pyrazolo[3,4-b]quinolin-4-amine] | 0.3 |  |
| CCn1ncc2c(NCC3CC3)c3ccccc3nc21 [Example 4, 1-ethyl-N-(cyclopropylmethyl)-1H-pyrazolo[3,4-b]quinolin-4-amine] | 3 |  |
| CCn1ncc2c(NCC3CCC(C(=O)OCSC)CC3)c3ccccc3nc21 (stereo not drawn) [Example 5, 1-ethyl-N-[[4-(methylthiomethoxycarbonyl)cyclohexyl]methyl]-1H-pyrazolo[3,4-b]quinolin-4-amine] |  | Percent Inhibition cGMP-PDE V (0.1 μM): 4%; Percent Inhibition cGMP-PDE V (1 μM): 34%; Percent Inhibition cGMP-PDE V (10 μM): 81% |
| CCn1ncc2c(NCC3CCCCC3)c3cc(OCCN(C)C)ccc3nc21 [Example 12] | 0.24 |  |
| CCn1ncc2c(NCC3CCCCC3)c3cc(N)ccc3nc21 [Example 20, 1-ethyl-6-amino-N-(cyclohexylmethyl)-1H-pyrazolo[3,4-b]quinolin-4-amine] | 0.3 |  |
| CCn1ncc2c(NCC3CCCCC3)c3ccc(N)cc3nc21 [Example 25, 1-ethyl-7-amino-N-(cyclohexylmethyl)-1H-pyrazolo[3,4-b]quinolin-4-amine] |  | Percent Inhibition cGMP-PDE V (0.1 μM): 7%; Percent Inhibition cGMP-PDE V (1 μM): 68%; Percent Inhibition cGMP-PDE V (10 μM): 95% |
| CCn1ncc2c(N[C@@H](C)C3CCCCC3)c3cc(OC)ccc3nc21 [Example 26, 1-ethyl-6-methoxy-N-[S(+)-1-(cyclohexyl)ethyl]-1H-pyrazolo[3,4-b]quinolin-4-amine] |  | IC50 [1]: 0.0026 µM; IC50 [2]: 0.0052 µM |
| CCn1ncc2c(N[C@H](C)C3CCCCC3)c3cc(OC)ccc3nc21 [Example 27, 1-ethyl-6-methoxy-N-[R(-)-1-(cyclohexyl)ethyl]-1H-pyrazolo[3,4-b]quinolin-4-amine] |  | IC50 [1]: 0.34 µM; IC50 [2]: 0.21 µM; IC50 (separate experimental runs, third value): 0.266 µM |
| CCn1ncc2c(NCC3CCCCC3)c3cc(C(=O)O)ccc3nc21 [Example 30, 1-ethyl-6-carboxy-N-(cyclohexylmethyl)-1H-pyrazolo[3,4-b]quinolin-4-amine] | 0.03 |  |
| CCn1ncc2c(NCC3CCCCC3)c3cc(-c4ccncc4)ccc3nc21 [Example 31] | 0.032 |  |

The next lines start with results.

| IC50 [µM] | SMILES | also measured |
| --- | --- | --- |
| 0.0076 | CCn1ncc2c(N[C@@H](C)C3CCCCC3)c3cc([S+](C)[O-])ccc3nc21 (single isomer, unassigned) [48(e), 1-ethyl-6-(methylsulfinyl)-N-[S(+)-1-(cyclohexyl)ethyl]-1H-pyrazolo[3,4-b]quinolin-4-amine] |  |
| 0.0042 | CCn1ncc2c(N[C@@H](C)C3CCCCC3)c3cc([S+](C)[O-])ccc3nc21 (single isomer, unassigned) [Example 48(d), 1-ethyl-6-(methylsulfinyl)-N-[S(+)-1-(cyclohexyl)ethyl]-1H-pyrazolo[3,4-b]quinolin-4-amine] |  |
| 0.147 | CCn1ncc2c(NCC3CCCCC3)c3ccc(OC)cc3nc21 [18(d), 1-ethyl-7-methoxy-N-(cyclohexylmethyl)-1H-pyrazolo[3,4-b]quinolin-4-amine] |  |
| 0.00096 | CCn1ncc2c(N[C@@H](C)C3CCCCC3)c3cc(C#N)ccc3nc21 [41(c), 1-ethyl-6-cyano-N-[S(+)-(1-cyclohexyl)ethyl]-1H-pyrazolo[3,4-b]quinolin-4-amine] |  |
| 0.112 | CCn1ncc2c(N[C@@H](C)C3CCCCC3)c3cc(OC)c(OC)cc3nc21 [42(c)] |  |
| 0.023 | CCn1ncc2c(N[C@@H](C)C3CCCCC3)c3cc(-c4noc(C)n4)ccc3nc21 [47(c)] |  |
| 0.0054 | CCn1ncc2c(N[C@@H](C)C3CCCCC3)c3cc(S(=O)(=O)C(F)(F)F)ccc3nc21 [53(c), 1-ethyl-6-(trifluoromethylsulfonyl)-N-[S (+)-1-(cyclohexyl)ethyl]-1H-pyrazolo[3,4-b]quinolin-4-amine] |  |

— patent US5488055A, “Substituted N-cycloalkylmethyl-1H-pyrazolo(3,4-b)quinolin-4 amines and compositions and methods of use thereof” (Sanofi Winthrop Inc., priority 1995, dated 1996)
